This is an account of results in US20250099609A1 (priority 2023, published 2025).

For data set [1] the following is noted: in vivo; cited from earlier work.
For the next data set, the system named is osteoclasts. The data set is described as follows: Osteoclast maturation (DAPI/Phalloidin staining). The format is cell-based. As to conditions: without radiation. Here is the method:
This treatment was carried out without exposing the osteoclasts to radiation.

Data set [2] has as its system primary and metastatic cancer cell. The data set is described as follows: Primary and metastatic cancer cell growth. The format is cell-based. The note with it: at therapeutic levels. An excerpt: This invention combines these two unique approaches as a bi-modal and multifunctional chimeric nanostrategy to combat against ionizing radiation-induced damage.
A further data set deals with bone. As to conditions: literature refs 15 and 19; cited from earlier work.
Data set [3] relates to post-menopausal osteoporosis. As to the kind of experiment: Post-menopausal osteoporosis in animals. The format is in vivo. An excerpt:
The above embodiments also relate to the field of medicine for an article of manufacture delivering a prophylactic and therapeutic tissue strategy for osteoporosis. The remarkable increase in average life expectancy during the 20th century ranks as one of society's greatest achievements. As a result, the world's elderly population (aged ≥65 years) continues to grow at an unprecedented rate. As the proportion of the oldest-old (aged >85 years) and length of life expectancy increases, a rise in age-related degenerating diseases, disability, and prolonged dependency is projected. Age-related bone loss and osteoporosis is inevitable in both men and women, and can lead to fragility fractures, immobility, and disability. Currently, bisphosphonate treatment and weight-bearing exercise are commonly used therapeutic approaches, but both with limited long-term success.

For another data set, the system named is mesenchymal stem cells. As to the kind of experiment: Alkaline phosphatase (ALP) assay after radiation. The format is cell-based. As to conditions: treatment 24 h or 48 h after ionizing radiation. An excerpt: FIGS. 6A-B show results of an alkaline phosphatase (ALP) assay. The micrographs show assessed bone formation after treatment with P7C3, with cerium oxide nanoparticles (CNPs), or with a combination of P7C3 and CNPs.

The subject of data set [4] is stem cells. The data set is described as follows: Bone mineral formation / new bone deposition after radiation (Alizarin red). The note with it: 14 days of culture; treatment 24 h or 48 h after radiation (7 Gy). The format is cell-based. As to the method:
Radiation reduces the ability of bone cells to produce bone. […] This is further confirmed when the cells are cultured over a longer period of 28 days.
The data showing assessed bone formation was supported by quantification of new bone deposition.
(**** p<0.000) The synergistic effect continues when treatment is administered more than 24 hours after radiation exposure.

Data set [5] relates to stem cells. The data set is described as follows: Stem cell conversion to fat cells after radiation. The format is cell-based. The note with it: after exposure to radiation (IR 21d). Here is the method:
All treatment was administered with radiation (IR 21d).
Radiation exposure, post-menopausal osteoporosis, and diabetes are conditions that cause stem cells to favor conversion to fat cells instead of conversion to bone cells. This process progresses to tissue dysfunction. Stem cells were treated with P7C3 or with cerium oxide nanoparticles (CNPs) after exposure to radiation. […] All treatment was administered with radiation (IR 21d).

With `OC(CNc1ccccc1)Cn1c2ccc(Br)cc2c2cc(Br)ccc21` (centres unmarked) [P7C3, aminopropyl carbazole], the oral bioavailability entry in data set [1] is listed as “high oral bioavailability”. Also, the maturation of osteoclasts entry with osteoclasts is given as “stops the maturation of osteoclasts”. Moreover, in data set [2], the “primary and metastatic cancer cell growth” value is recorded as “significantly reduces”. In the data set with bone, the “countermeasure against ionizing radiation-induced bone damage and/or bone loss” value is recorded as “effective countermeasure”. For the same compound, in data set [3], the “progression of post-menopausal osteoporosis” value is on record as “reduces the progression”. In the data set with mesenchymal stem cells, the “alkaline phosphatase expression / conversion of stem cells to osteoblasts” value is recorded as “limited upregulation”. Moreover, the “new bone deposition (micrographs)” value in the data set on stem cells [4] is reported as “does not substantially increase new bone deposition”. For the same compound, the “fat formation from stem cells” value in the data set with stem cells [5] was “inhibit fat formation”.
